Counter-ions that a name gives are not always drawn.
The compounds below were run against T1, Tau K18 fragment aggregates (amino acids 244 to 372 of human Tau441) (Homo sapiens, UniProt P10636) (assay: Tau K18 disaggregation assay by ThT). Settings: ThT fluorescence; 2 μM K18 aggregates, 30 minutes at RT.
T1 construct: encompassing amino acids 244 to 372 of the longest isoform (2N4R) of human Tau441; host or cells: bacteria
T1 sequence (P10636 561-689): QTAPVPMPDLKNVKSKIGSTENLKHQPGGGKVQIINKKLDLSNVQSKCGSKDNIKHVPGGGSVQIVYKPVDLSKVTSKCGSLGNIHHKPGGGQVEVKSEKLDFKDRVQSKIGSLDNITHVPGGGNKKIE
Type: biochemical
Procedure: Tau K18 Disaggregation Assay by ThT
The Tau K18 fragment, encompassing amino acids 244 to 372 of the longest isoform (2N4R) of human Tau441, was expressed in bacteria and purified or bought from SignalChem. For the K18 disaggregation assay by ThT, 35 μM of recombinant K18 in PBS were aggregated for 24 hours at 37° C. in presence of 50 μM of heparin (Sigma-Aldrich) and 10 mM of DTT (Sigma-Aldrich) under shaking at 750 RPM. Compounds were dissolved in anhydrous dimethyl sulfoxide (DMSO, Sigma-Aldrich) to reach a concentration of 10 mM. K18 aggregates and serial dilutions of compounds were mixed together in PBS (volume 50 μL) to a final concentration of 2 μM of K18 aggregates and from 160 to 0.04 μM of compounds. The mixture was incubated for 30 minutes at room temperature (RT), then 40 μL of this mixture were transferred into a black 384-well plate assay (Perkin-Elmer) and mixed with 10 μL of 100 μM ThT in 250 mM glycine (both from Sigma-Aldrich) in PBS. Fluorescence (relative fluorescence units; RFU) was measured in monoplicate or duplicate on a Tecan reader (excitation: 440 nm; emission: 485 nm). Percentage of K18 disaggregation was then calculated and half maximal effective concentration (E050) was determined using GraphPad Prism version 5 (GraphPad Software) assuming a one-binding site fitting model.
For `COc1ccc2c(c1)c1c(n2C)CN(c2ccc3oc(N(C)C)nc3c2)CC1` [Example 21], the EC50 was < 10 µM. For `c1ccc2c3c([nH]c2c1)CN(c1ccc2nc(N4CCOCC4)sc2c1)CC3` [Example 38], the EC50 was < 10 µM. `c1ccc2c3c([nH]c2c1)CN(c1ccc(N2CCOCC2)cn1)CC3` [Example 43] was tested, and the EC50 was < 10 µM. In the case of `Cn1c2c(c3ccccc31)CCN(c1ccc(N3CCOCC3)cn1)C2` [Example 45], the EC50 is reported as < 10 µM.

These compounds were tested against T2, Aggregated human Tau in human neuroblastoma cell line overexpressing full-length human Tau P301L (Homo sapiens, UniProt P10636, P618L) (assay: Reduction of intracellular Tau aggregation (AlphaLISA, aggregated Tau normalized to total Tau)). Settings: compound at 5 μM, 24 h, relative to DMSO-treated cells.
T2 construct: overexpressing the full-length form of human Tau carrying the P301L mutation; expressed in transfected cells; host or cells: human neuroblastoma cell line (G418 selection)
T2 sequence (P10636 1-441 isoform P10636-8 P301L): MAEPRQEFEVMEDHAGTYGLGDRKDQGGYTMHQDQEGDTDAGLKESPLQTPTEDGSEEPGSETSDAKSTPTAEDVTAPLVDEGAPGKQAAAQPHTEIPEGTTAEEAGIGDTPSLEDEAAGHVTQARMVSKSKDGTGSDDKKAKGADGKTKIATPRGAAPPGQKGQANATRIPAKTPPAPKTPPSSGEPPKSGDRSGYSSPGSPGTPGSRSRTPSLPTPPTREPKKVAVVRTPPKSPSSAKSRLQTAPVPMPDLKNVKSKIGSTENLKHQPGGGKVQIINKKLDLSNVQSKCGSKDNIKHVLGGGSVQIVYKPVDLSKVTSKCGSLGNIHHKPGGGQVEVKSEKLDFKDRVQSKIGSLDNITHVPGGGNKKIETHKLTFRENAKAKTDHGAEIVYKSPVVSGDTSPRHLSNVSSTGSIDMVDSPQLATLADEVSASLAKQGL
Type: cell-based
Procedure: Reduction of Intracellular Tau Aggregation
A human neuroblastoma cell line overexpressing the full-length form of human Tau carrying the P301L mutation was cultured in complete medium [DMEM-F12 4.5 g/L Glutamax (Invitrogen), 15% FBS (Biochrom), 1% Peni/Strep (Invitrogen) supplemented with 2.5 μg/ml of G418 (Sigma-Aldrich) selection antibiotic]. The day before the experiment 5×10^5 cells/well were plated in a 6 well plate in 3 mL of complete medium. The next day, cells were incubated with DMSO or a compound of the present invention at 5 μM for additional 24 h at 37° C. After incubation, cells were trypsinized, resupsended in 100 μl of homogenization buffer [25 mM Tris-HCl pH 7.4, 150 mM NaCl, 1 mM EDTA, 1 mM EGTA containing phosphatase inhibitors (30 mM NaF, 0.2 mM Na3VO4, 1 nM okadaic acid, 1 mM PMSF, 5 mM Na4P2O7) and protease inhibitor cocktail (Complete™, Roche)], and then physically lysed with three rapid cycles of freezing and thawing. Samples were then directly tested in the AlphaLISA assay.
Phosphorylated, aggregated, and total Tau were quantified by AlphaLisa using the following antibody pairs: • HT7-Acceptor beads+biotin (BT)-Tau13-Donor beads: Total Tau • HT7-Acceptor beads+biotin (BT)-HT7-Donor beads: Aggregated human Tau
The Tau13 (Abcam) was biotinylated using EZ-Link® NHS-PEO Solid Phase biotinylation kit (Thermo Scientific), while the HT7-biotin was from a commercial source (Thermo Scientific).
For each antibody pairs the concentration of acceptor beads and biotinylated antibodies was optimized. All samples were first tested in a dilution series in PBS in order to identify the linear range and optimal dilution for each sample and assay. For the final protocol, the following reagents were added in a 384-well white OptiPlate (PerkinElmer): • 5 μL of test diluted sample • 20 μL of the mixture biotin-mAb acceptor beads at the following final concentrations: • HT7-BT at 1.25 nM in combination with HT7-Acc beads at 10 μg/ml • Tau13-BT at 5 nM in combination with HT7-Acc beads at 2.5 μg/ml
After incubation of this mixture at room temperature for 1 h, 25 μL of Streptavidin Donor beads (Perkin Elmer) at 25 μg/mL were added in the dark. Plates were analyzed after 30 min incubation using the EnSpire Alpha instrument and EnSpire Workstation version 3.00. Data for aggregated Tau were normalized to total Tau and then expressed as percentage of the DMSO-treated cells.
In the case of `CN(C)c1nc2ccc(N3CCc4c(n(C)c5ccc(F)cc45)C3)cc2o1` [Example 12], the “% Reduction of intracellular Tau aggregation” value (“% Reduction” for short) is reported as “+ (+ % 25 < x < 10)”. `COc1ccc2c(c1)c1c(n2C)CN(c2ccc3oc(N(C)C)nc3c2)CC1` [Example 21] was tested, and the “% Reduction” value was “+ (+ % 25 < x < 10)”. With `c1ccc2c3c([nH]c2c1)CN(c1ccc2nc(N4CCOCC4)sc2c1)CC3` [Example 38] the “% Reduction” value was “+ (+ % 25 < x < 10)”. In the case of `c1ccc2c3c([nH]c2c1)CN(c1ccc(N2CCOCC2)cn1)CC3` [Example 43], the “% Reduction” value is reported as “++ (++ % 50 < x < 25)”. `Cn1c2c(c3ccccc31)CCN(c1ccc(N3CCOCC3)cn1)C2` [Example 45] was tested, and the “% Reduction” value was “++ (++ % 50 < x < 25)”.

What follows are compounds tested against T3, recombinant full-length (fl)Tau aggregates (longest isoform of human Tau, 2N4R; 441 amino acids) (Homo sapiens, UniProt P10636) (assay: Full-length Tau (flTau) disaggregation assay by Thioflavin T (ThT)). Settings: ThT fluorescence; 2 μM flTau aggregates, 30 minutes at RT.
T3 construct: 35 μM of recombinant full-length (fl)Tau in PBS were aggregated for 24 hours; made in house; host or cells: bacteria
T3 sequence (P10636 1-441 isoform P10636-8): as the sequence (P10636 1-441 isoform P10636-8 P301L) above, with L301P counted along it
Type: biochemical
Procedure: Full-Length Tau (flTau) Disaggregation Assay by Thioflavin T (ThT)
The longest isoform of human Tau (2N4R; 441 amino acids) was expressed in bacteria and purified. For the Tau disaggregation assay by ThT, 35 μM of recombinant full-length (fl)Tau in PBS were aggregated for 24 hours at 37° C. in presence of 50 μM of heparin (Sigma-Aldrich) and 10 mM of DTT (Sigma-Aldrich) under shaking at 750 RPM. Compounds were dissolved in anhydrous dimethyl sulfoxide (DMSO, Sigma-Aldrich) to reach a concentration of 10 mM. flTau aggregates and serial dilutions of compounds were mixed together in PBS (volume 50 μL) to a final concentration of 2 μM of flTau aggregates and from 160 to 0.04 μM of compounds. The mixture was incubated for 30 minutes at room temperature (RT), then 40 μL of this mixture were transferred into a black 384-well plate assay (Perkin-Elmer) and mixed with 10 μL of 100 μM ThT in 250 mM glycine (both from Sigma-Aldrich) in PBS. Fluorescence (relative fluorescence units; RFU) was measured in monoplicate or duplicate on a Tecan reader (excitation: 440 nm; emission: 485 nm). Percentage of flTau disaggregation was then calculated and the half maximal effective concentration (EC50) was determined using GraphPad Prism version 5 (GraphPad Software) assuming a one-binding site fitting model.
With `Cn1c2c(c3ccc(F)cc31)CCN(c1ccc3nc(N4CCOCC4)sc3c1)C2` [Example 6] the EC50 was < 10 µM. For `Cn1c2c(c3ccc(F)cc31)CCN(c1ccc3sc(N4CCOCC4)nc3c1)C2` [Example 7], the EC50 was < 10 µM. With `Cn1c2c(c3cc(F)ccc31)CCN(c1ccc(N3CCOCC3)nc1)C2` [Example 8] the EC50 was < 10 µM. `COc1cc(N2CCc3c(n(C)c4ccc(F)cc34)C2)ccc1F` [Example 9] was tested, and the EC50 was < 10 µM. For `CN(C)c1nc2cc(N3CCc4c(n(C)c5ccc(F)cc45)C3)ccc2s1` [Example 11], the EC50 was < 10 µM. For `CN(C)c1nc2ccc(N3CCc4c(n(C)c5ccc(F)cc45)C3)cc2o1` [Example 12], the EC50 was < 10 µM. `CN(C)c1nc2cc(N3CCc4c(n(C)c5ccc(F)cc45)C3)ccc2o1` [Example 13] was tested, and the EC50 was < 10 µM. In the case of `COc1ccc2c(c1)c1c(n2C)CN(c2ccc3sc(N4CCOCC4)nc3c2)CC1` [Example 14], the EC50 is reported as < 10 µM. `COc1ccc2c(c1)c1c(n2C)CN(c2ccc3nc(N4CCOCC4)sc3c2)CC1` [Example 15] was tested, and the EC50 was < 10 µM. `COc1ccc2c(c1)c1c(n2C)CN(c2ccc3oc(N4CCOCC4)nc3c2)CC1` [Example 16] was tested, and the EC50 was < 10 µM. With `COc1ccc2c(c1)c1c(n2C)CN(c2ccc3sc(N(C)C)nc3c2)CC1` [Example 17] the EC50 was < 10 µM. In the case of `COc1ccc2c(c1)c1c(n2C)CN(c2ccc3nc(N(C)C)sc3c2)CC1` [Example 18], the EC50 is reported as < 10 µM. For `COc1ccc2c(c1)c1c(n2C)CN(c2ccc3nc(N(C)C)oc3c2)CC1` [Example 19], the EC50 was < 10 µM. With `c1ccc2c3c([nH]c2c1)CN(c1ccc(N2CCOCC2)nc1)CC3` [Example 44 HCl] the EC50 was < 10 µM. In the case of `Cn1c2c(c3ccccc31)CCN(c1ccc(N3CCOCC3)cn1)C2` [Example 45 HCl], the EC50 is reported as < 10 µM. In the case of `Cn1c2c(c3ccccc31)CCN(c1ccc(N3CCOCC3)nc1)C2` [Example 46 HCl], the EC50 is reported as 10 to 25 µM. With `c1ccc2c3c([nH]c2c1)CN(c1ccc(N2CC4COCC4C2)nc1)CC3` (stereo not shown) [Example 69 HCl] the EC50 was < 10 µM. Work on `c1ccc2c3c([nH]c2c1)CN(c1ccc(N2CC4CC(C2)O4)nc1)CC3` [Example 71 HCl] yielded an EC50 of 10 to 25 µM. For `C[C@H]1CN(c2ccc(N3CCc4c([nH]c5ccccc45)C3)cn2)CCO1` [Example 74 HCl], the EC50 was < 10 µM. With `C[C@@H]1CN(c2ccc(N3CCc4c([nH]c5ccccc45)C3)cn2)CCO1` [Example 75 HCl] the EC50 was < 10 µM. With `C[C@@H]1CN(c2ccc(N3CCc4c([nH]c5ccccc45)C3)cn2)C[C@H](C)O1` [Example 76 HCl] the EC50 was < 10 µM. `C[C@H]1COCCN1c1ccc(N2CCc3c([nH]c4ccccc34)C2)cn1` [Example 79 HCl] showed an EC50 of 10 to 25 µM. `c1ccc2c3c([nH]c2c1)CN(c1ccc(N2CC4(CCOCC4)C2)nc1)CC3` [Example 80 HCl] gave an EC50 of 10 to 25 µM. In the case of `c1ccc2c3c([nH]c2c1)CN(c1ccc(N2CCC4(CC2)COC4)nc1)CC3` [Example 83 HCl], the EC50 is reported as 25 to 50 µM. Work on `c1ccc2c3c([nH]c2c1)CN(c1ccc(N2C[C@H]4C[C@@H]2CO4)nc1)CC3` [Example 85 HCl] yielded an EC50 of 10 to 25 µM. `c1ccc2c3c([nH]c2c1)CN(c1ccc(N2C[C@@H]4C[C@H]2CO4)nc1)CC3` [Example 86 HCl] was tested, and the EC50 was < 10 µM. For `Cn1c2c(c3cc(F)ccc31)CCN(c1ccc3oc(N4CCOCC4)nc3c1)C2` [Example 104], the EC50 was < 10 µM. `Cn1c2c(c3cccnc31)CCN(c1ccc(N3CCOCC3)nc1)C2` [Example 105 HCl] showed an EC50 of 25 to 50 µM. Work on `Cn1c2c(c3cc(F)cnc31)CCN(c1ccc(N3CCOCC3)cn1)C2` [Example 107 HCl] yielded an EC50 of 25 to 50 µM. For `Fc1ccc2c3c([nH]c2c1)CN(c1ccc(N2CCOCC2)nc1)CC3` [Example 108 HCl], the EC50 was < 10 µM. In the case of `Fc1ccc2c3c([nH]c2c1)CN(c1ccc(N2CCOCC2)cn1)CC3` [Example 109 HCl], the EC50 is reported as < 10 µM. In the case of `Cn1c2c(c3ccc(F)cc31)CCN(c1ccc(N3CCOCC3)nc1)C2` [Example 110 HCl], the EC50 is reported as < 10 µM. For `Cn1c2c(c3ccc(F)cc31)CCN(c1ccc(N3CCOCC3)cn1)C2` [Example 111 HCl], the EC50 was < 10 µM. In the case of `CCn1c2c(c3ccccc31)CCN(c1ccc(N3CCOCC3)nc1)C2` [Example 123 HCl], the EC50 is reported as < 10 µM.

— patent US20210267989A1, “Novel Compounds for the Treatment, Alleviation or Prevention of Disorders Associated with Tau Aggregates” (AC Immune SA, priority 2018, published 2021)
